# Measurements: ChEMBL document CHEMBL3232888, “Optimization of anti-virulence PqsR antagonists regarding aqueous solubility and biological properties resulting in new insights in structure-activity relationships” (Eur J Med Chem, 2014)
# Key:
# [1] = Aqueous solubility of the compound in 2% DMSO at pH 7.4 by HPLC analysis; format: physicochemical; settings: aqueous medium with 2% DMSO
# [2] = tested on: Pseudomonas aeruginosa; test: Agonist activity at Pseudomonas aeruginosa PqsR expressed in Escherichia coli DH5alpha assessed as induction of transcriptional activity at 5 uM by beta-galactosidase reporter gene assay relative to PQS
# [3] = tested on: Pseudomonas aeruginosa; test: Antagonist activity at Pseudomonas aeruginosa PqsR expressed in Escherichia coli DH5alpha assessed as inhibition of PQS-induced transcriptional activity at 50 nM by beta-galactosidase reporter gene assay relative to PQS
# [4] = tested on: Pseudomonas aeruginosa; test: Antagonist activity at Pseudomonas aeruginosa PqsR expressed in Escherichia coli DH5alpha assessed as inhibition of PQS-induced transcriptional activity at 5 uM by beta-galactosidase reporter gene assay relative to PQS
# [5] = Antagonist activity at Pseudomonas aeruginosa PqsR expressed in Escherichia coli DH5alpha assessed as inhibition of PQS-induced transcriptional activity by beta-galactosidase reporter gene assay relative to PQS
# [6] = tested on: Pseudomonas aeruginosa; test: Antivirulence activity in Pseudomonas aeruginosa PA14 assessed as reduction of extracellular level of PQS at 15 uM by UHPLC-MS/MS analysis relative to control; format: functional; design: scale not given: the % may be the effect or the level left
# [7] = tested on: Pseudomonas aeruginosa; test: Antivirulence activity in Pseudomonas aeruginosa PA14 assessed as reduction of extracellular level of pyocyanin at 15 uM relative to control; format: functional; design: scale not given: the % may be the effect or the level left
# [8] = tested on: Pseudomonas aeruginosa; test: Antivirulence activity in Pseudomonas aeruginosa PA14 assessed as reduction of extracellular level of pyocyanin; format: functional
# [9] = Metal chelating activity of the compound assessed as CAS iron-chelation after 15 mins; format: physicochemical; settings: 0.25 h
# [10] = tested on: Pseudomonas aeruginosa; test: Growth inhibition of Pseudomonas aeruginosa; format: organism-based; settings: in vivo
# [11] = tested on: Pseudomonas aeruginosa; test: Agonist activity at Pseudomonas aeruginosa PqsR expressed in Escherichia coli DH5alpha assessed as induction of transcriptional activity at 10 uM by beta-galactosidase reporter gene assay relative to PQS
# [12] = tested on: Pseudomonas aeruginosa; test: Agonist activity at Pseudomonas aeruginosa PqsR expressed in Escherichia coli DH5alpha assessed as induction of transcriptional activity at 1 uM by beta-galactosidase reporter gene assay relative to PQS
# [13] = tested on: Pseudomonas aeruginosa; test: Antivirulence activity in Pseudomonas aeruginosa PA14 assessed as reduction of extracellular level of PQS at 10 uM by UHPLC-MS/MS analysis relative to control; format: functional; design: scale not given: the % may be the effect or the level left
# [14] = tested on: Pseudomonas aeruginosa; test: Antivirulence activity in Pseudomonas aeruginosa PA14 assessed as reduction of extracellular level of pyocyanin at 10 uM relative to control; format: functional; design: scale not given: the % may be the effect or the level left
# [15] = tested on: Pseudomonas aeruginosa; test: Antivirulence activity in Pseudomonas aeruginosa PA14 assessed as reduction of extracellular level of PQS at 250 uM by UHPLC-MS/MS analysis relative to control; format: functional; design: scale not given: the % may be the effect or the level left
# [16] = tested on: Pseudomonas aeruginosa; test: Antivirulence activity in Pseudomonas aeruginosa PA14 assessed as reduction of extracellular level of pyocyanin at 250 uM relative to control; format: functional; design: scale not given: the % may be the effect or the level left
# [17] = tested on: Pseudomonas aeruginosa; test: Antivirulence activity in Pseudomonas aeruginosa PA14 assessed as reduction of extracellular level of PQS at 100 uM by UHPLC-MS/MS analysis relative to control; format: functional; design: scale not given: the % may be the effect or the level left
# [18] = tested on: Pseudomonas aeruginosa; test: Antivirulence activity in Pseudomonas aeruginosa PA14 assessed as reduction of extracellular level of pyocyanin at 100 uM relative to control; format: functional; design: scale not given: the % may be the effect or the level left
SMILES,solubility [1] [µM],Activity [2] [%],inhibition [3] [%],inhibition [4] [%],IC50 [5] [nM],Activity [10],also measured
CCCCCCCc1[nH]c2ccc([N+](=O)[O-])cc2c(=O)c1C(N)=O,15,0,60,100,35,Non-toxic,Activity [6]: 37%; Activity [7]: 81%; IC50 [8]: 2000 nM; Activity [9]: Not Active
CCCCCCCc1[nH]c2ccccc2c(=O)c1[N+](=O)[O-],< 5,0.84,14,17,,,
CCCCCCCc1[nH]c2ccccc2c(=O)c1C(=O)OCC,5,0,18,32,,,
CCCCCCCc1cc(=O)c2cc([N+](=O)[O-])ccc2[nH]1,< 5,,73,100,51,Non-toxic,Activity [11]: 0%; Activity [6]: 14%; Activity [7]: 44%
CCCCCCCc1cc(OC)c2ccccc2n1,5,0.03,-23,-6,,,
CCCCCOCc1cc(=O)c2ccccc2[nH]1,> 200,0.89,11,6,,,
CCCCCCCc1[nH]c2ccccc2c(=O)c1N,50,1.22,-4,-7,,,
CCCCCCCc1cc(O)c2ccccc2n1,15,,,,,,
CCOCCCCc1[nH]c2ccc([N+](=O)[O-])cc2c(=O)c1C(=O)OCC,5,0.09,2,27,,,
CCCCCCCc1[nH]c2ccccc2c(=O)c1CO,50,0.49,5,28,,,
CCCCCCCc1[nH]c2ccc([N+](=O)[O-])cc2c(=O)c1C(=O)OCC,5,0,-8,20,,,
CCCCCCCc1[nH]c2ccncc2c(=O)c1C(=O)O,50,0.66,6,20,,,
CCCCCCCc1[nH]c2ccc([N+](=O)[O-])cc2c(=O)c1CO,5,0,45,100,72,Non-toxic,Activity [6]: 33%; Activity [7]: 83%; IC50 [8]: 3800 nM; Activity [9]: Not Active
CCCCCOCc1[nH]c2ccc([N+](=O)[O-])cc2c(=O)c1C(=O)OCC,15,0,2,13,,,
CCCCCCCc1cc(=O)c2ccccc2[nH]1,,,,,,,Activity [12]: 0.75%
CCCCCCCc1cc(=O)c2cc(C(F)(F)F)ccc2[nH]1,< 5,0,54,100,54,Non-toxic,Activity [13]: 2.4%; Activity [14]: 27%
CCOCCCCc1cc(=O)c2cc(C(F)(F)F)ccc2[nH]1,> 200,0.02,8,69,1710,Non-toxic,Activity [15]: 8.6%; Activity [16]: 39%

SMILES,solubility [1] [µM],Activity [2] [%],inhibition [3] [%],inhibition [4] [%],IC50 [5] [nM],Activity [10],also measured
CCCCCCCc1cc(=O)c2cc(C(F)(F)F)ccc2n1C,5,0,31,100,270,Non-toxic,Activity [6]: 8.9%; Activity [7]: 58%
CCCCCCCc1[nH]c2ccccc2c(=O)c1C(N)=O,5,0.65,8,27,,,
CCCCCCCc1[nH]c2ccccc2c(=O)c1C(=O)NO,> 200,0.83,15,29,,,
CCCCCOCc1[nH]c2ccc([N+](=O)[O-])cc2c(=O)c1C(=O)O,50,0.48,7,6,,,
CCCCCOCc1cc(=O)c2cc(C(F)(F)F)ccc2[nH]1,15,0,29,100,172,Non-toxic,Activity [6]: 21%; Activity [7]: 29%
CCOCCCCc1cc(=O)c2cc([N+](=O)[O-])ccc2[nH]1,50,0.13,6,72,3510,Non-toxic,Activity [17]: 13%; Activity [18]: 23%
CCCCCCCc1[nH]c2ccc([N+](=O)[O-])cc2c(=O)c1C(=O)NO,> 200,0.3,30,78,,,
CCOCCCCc1[nH]c2ccc([N+](=O)[O-])cc2c(=O)c1C(=O)O,50,0.42,1,33,,,
CCCCCCCc1[nH]c2ccccc2c(=O)c1C(=O)O,15,0.73,12,41,,,
CCCCCCCc1[nH]c2ccc([N+](=O)[O-])cc2c(=O)c1O,< 5,1.25,-31,-29,,,
CCCCCCCc1[nH]c2ccc([N+](=O)[O-])cc2c(=O)c1C(=O)O,15,0.78,11,34,,,
CCCCCCc1cc(=O)c2cc(C(F)(F)F)ccc2n1C,15,0,45,100,229,Non-toxic,
CCOCCCCc1cc(=O)c2ccccc2[nH]1,> 200,0.31,54,42,,,
CCCCCCCc1cc(=O)c2cnccc2[nH]1,50,0.82,8,2,,,
CCCCCOCc1cc(=O)c2cc([N+](=O)[O-])ccc2[nH]1,15,0,49,100,253,Non-toxic,Activity [6]: 23%; Activity [7]: 27%
CCCCCCCc1[nH]c2ccncc2c(=O)c1C(=O)OCC,50,0.02,24,76,,,
